Like-named read-outs stand apart in the source and are kept apart here.
How the values were obtained:
[1] = Cytotoxicity test (MTT), U937; format: cell-based; conditions: human, U937, 48 h; for viability at 48 h, 0.01 µM / viability at 48 h, 0.1 µM / viability at 48 h, 1 µM / viability at 48 h, 10 µM / viability at 48 h, 100 µM: U937 cells (monocytic blood cancer-derived cell line), read-out: Cell viability (% of control); for IC50 at 48 h: U937 cells
Experimental: (§1) The human colorectal cancer cell line HT-29 and the monocytic blood cancer-derived cell line U937 were cultured in a RPMI 1640 medium containing 10% FBS and 1% penicillin/streptomycin (PS) at 37° C. under a condition of 5% CO2, and when the cells used herein were grown to 80% or more, they were subcultured at a ratio of 1:3.
(§2) Each type of cells were cultured in a 96 well plate at a concentration of 1×10^5 cells/cm2, treated with a test compound by concentration in a medium only containing 1% FBS and 1% PS at 37° C. under a condition of 5% CO2 for 48 hours and reacted with 5 mg/mL of a 3-[4,5-dimethylthiazol-2-yl]-2,5-diphenyltetrazolium bromide (MTT) reagent for 4 hours, and then the medium was completely removed, the cells were treated with DMSO, formazan crystals were dissolved for 30 minutes, and then absorbance was measured at 540 nm.

TNBS-induced colitis = assay: In vivo efficacy of oral administration in TNBS-induced inflammatory bowel disease model; parameters: species or system Sprague Dawley rats; conditions: rat; for Body weight recovery rate (%) / Bowel weight recovery rate (%): oral, 5 days
Experimental: 7 to 8-week-old Sprague Dawley rats were purchased from Orient Bio Korea, and after stabilization with typical solid feed for 3 days, were used as animals for the experiment. The animals were freely supplied with feed and water during the experiment, and a cage was maintained at a temperature of 25±1° C. and a relative humidity of 50±10%. Lighting was adjusted to a 12-hour light-dark cycle using an automatic lightening system. In regard to experimental groups, there were 5 groups each consisting of 6 rats having an average weight of 180±10 g (a control group, a group administered TNBS only, a group administered TNBS+300 mg/kg of sulfasalazine, a group administered TNBS+10 mg/kg of GLPG, and a group administered TNBS+1 mg/kg of test drug), which were divided according to a randomized block design.
After rats that had been fasting for 24 hours were anesthetized with diethyl ether, a 1 mL syringe connected with a polyethylene catheter was used to slowly inject 0.8 mL of 5% TNBS diluted with 50v/v % ethanol into the lumen of a colon, and then the rats turned upside down and kept upright for 60 seconds to prevent the leakage of 5% TNBS from the anus. In the control group, only a vehicle [50 v/v % ethanol] was injected in the same manner as in the other groups (Thapa et al., 2008).
To examine a drug effect, for 5 days from the day following the TNBS treatment, a drug was administered at a predetermined time every day.
A change in the body weights of the rats was observed using a digital mass meter from the fasting stage to the end of the TNBS administration and drug administration processes.
The colon of each rat was extracted and tissue 5 to 6 cm from the anus was cut into 1-cm pieces, and then the weight of the tissue was measured.

[2] = test system: TNF-α-induced adhesion of monocytes to intestinal epithelial cells; assay: Inhibitory activity against TNF-α-induced adhesion of monocytes (U937) to intestinal epithelial cells (HT-29); format: cell-based, human; conditions: for inhibition at 1 µM / IC50: Homo sapiens; for IC50: TNF-α-induced, read-out: IC50 (adhesion inhibition)
Experimental: HT-29 human colorectal cancer-derived epithelial cells and U937 human-derived monocytic cells were cultured in an RPMI 1640 medium containing 10% FBS and 1% penicillin/streptomycin (PS) at 37° C. under a condition of 5% CO2, and when the cells were grown to 80% or more in a culture flask, they were subcultured in a ratio of 1:3 to be used in this test. The HT-29 cells were cultured in a 24-well plate at a concentration of 2×10^5 cells/cm2, and then the medium only containing 1% FBS and 1% PS was pretreated with a test drug for 1 hour. Afterward, BCECF-loaded U937 cells by being treated with 10 μg/mL of BCECF-AM at 37° C. for 30 minutes and 10 ng/mL of TNF-α reacted with the HT-29 cells previously treated with the test drug at 37° C. for 3 hours. After the reaction, the medium was removed, and then the cells were washed with PBS twice to remove U937 cells that were not adhered. In a subsequent step, for cell lysis, 0.1% Triton X-100 (0.1 M Tris) was treated to allow a reaction at room temperature for 30 minutes, and then fluorescence was measured using a Fluostar optima microplate reader (BMG LABTECH, Germany) to quantify the cells (Carvalho et al., 1996; Thapa et al., 2008).

[3] = Cytotoxicity test (MTT), HT-29; format: cell-based; conditions: human, HT-29, 48 h; for viability at 48 h, 0.01 µM / viability at 48 h, 0.1 µM / viability at 48 h, 1 µM / viability at 48 h, 10 µM / viability at 48 h, 100 µM: HT-29 cells (colorectal cancer cell line), read-out: Cell viability (% of control); for IC50 at 48 h: HT-29 cells, read-out: IC50 (μM), cytotoxicity
Experimental: as §1, §2

[4] = 1 μM, Table 8, read-out: 1 μM concentration inhibitory activity
[5] = 1 μM test drug, HT-29/U937 adhesion, 10 ng/mL TNF-α
[6] = 1 μM test drug, HT-29/U937 adhesion, 10 ng/mL TNF-α, read-out: Inhibitory activity (%)

Row | Compound | viability at 48 h, 0.01 µM [1] [%] | viability at 48 h, 0.1 µM [1] [%] | viability at 48 h, 1 µM [1] [%] | viability at 48 h, 10 µM [1] [%] | viability at 48 h, 100 µM [1] [%] | IC50 at 48 h [1] [µM] | Body weight recovery rate (%) (TNBS-induced colitis; 1 mg/kg) | Bowel weight recovery rate (%) (TNBS-induced colitis; 1 mg/kg) | viability at 48 h, 0.01 µM [3] [%] | viability at 48 h, 0.1 µM [3] [%] | viability at 48 h, 1 µM [3] [%] | viability at 48 h, 10 µM [3] [%] | viability at 48 h, 100 µM [3] [%] | IC50 at 48 h [3] [µM] | inhibition at 1 µM [2, 6] [%] | further results
1 | Cc1nc(NC(=O)Nc2ccccc2)c(C)c(C)c1O [Compound 16-2, 1-(5-hydroxy-3,4,6-trimethylpyridin-2-yl)-3-phenylurea] | 89.9 ± 2.6 | 88.9 ± 1.9 | 87.1 ± 2 | 81.7 ± 2 | 78 ± 0.6 | > 100 | 69.0 | 81.6 | 103 ± 1.9 | 103 ± 1.6 | 103 ± 3.5 | 93.4 ± 7.2 | 65.2 ± 6.6 | > 100 |  | inhibition at 1 µM [2, 4]: 76.3%; IC50 ([2]; HT-29/U937 adhesion): 0.41 µM
2 | Cc1nc(NC(=S)Nc2cccc(C(F)(F)F)c2)c(C)c(C)c1O [Compound 18-9, 1-(5-Hydroxy-3,4,6-trimethylpyridin-2-yl)-3-(3-(trifluoromethyl)phenyl)thiourea] |  |  |  |  |  |  | 74.9 | 87.2 |  |  |  |  |  |  |  | Inhibitory activity (%) [2, 5]: 93.0%
3 | O=C(O)c1cc(/N=N/c2ccc(S(=O)(=O)Nc3ccccn3)cc2)ccc1O [Sulfasalazine, reference compound] |  |  |  |  |  |  |  |  |  |  |  |  |  |  |  | Morphology observation of colon (visual symptoms, adhesion between organs, intestinal hyperemia) (TNBS-induced colitis; 300 mg/kg, after 5-day administration): considerably inhibited; Body weight recovery rate (%) (TNBS-induced colitis; 300 mg/kg): 50.5%; Bowel weight recovery rate (%) (TNBS-induced colitis; 300 mg/kg): 69.6%
4 | Cc1nc(NC(=S)Nc2ccc(Cl)c(Cl)c2)c(C)c(C)c1O [Compound 18-8, 1-(3,4-dichlorophenyl)-3-(5-hydroxy-3,4,6-trimethylpyridin-2-yl)thiourea] |  |  |  |  |  |  | 72.4 | 84.6 |  |  |  |  |  |  |  | Inhibitory activity (%) [2, 5]: 87.2%
5 | Cc1nc(NC(=S)NC(C)C)c(C)c(C)c1O [Compound 18-2, 1-(5-hydroxy-3,4,6-trimethylpyridin-2-yl)-3-isopropylthiourea] | 97 ± 3.5 | 99.4 ± 3.9 | 99.1 ± 1.4 | 90.8 ± 2.2 | 63.6 ± 0.8 | > 100 | 72.0 | 81.6 | 87.6 ± 4.8 | 87.3 ± 2.1 | 88.4 ± 4.2 | 87.6 ± 5.3 | 88.6 ± 1.3 | > 100 | ≥ 50 | 
6 | Cc1nc(NS(=O)(=O)c2ccc(C(F)(F)F)cc2)c(C)c(C)c1O [Compound 22-3, N-(5-hydroxy-3,4,6-trimethylpyridin-2-yl)-4-(trifluoromethyl)benzenesulfonamide] | 96.9 ± 1.5 | 93 ± 1.5 | 87.5 ± 2.2 | 75.5 ± 1.9 | 53.3 ± 1.5 | > 100 | 25.0 | 50.3 | 92.5 ± 1.5 | 95 ± 0.9 | 89.3 ± 4.7 | 91.8 ± 1.8 | 72.6 ± 3.2 | > 100 |  | inhibition at 1 µM [2, 4]: 87.3%; IC50 ([2]; HT-29/U937 adhesion): 0.32 µM
7 | Cc1nc(NC(=O)OCC(C)C)c(C)c(C)c1O [Compound 20-3, isobutyl (5-hydroxy-3,4,6-trimethylpyridin-2-yl)carbamate] | 86.3 ± 0.4 | 86.3 ± 0.9 | 80.9 ± 2.1 | 82.2 ± 0.5 | 72.5 ± 1.9 | > 100 |  |  | 101 ± 1.9 | 91 ± 3.6 | 93.3 ± 4.7 | 83.7 ± 3.3 | 71.2 ± 3.4 | > 100 | 6 | 
8 | Cc1nc(NS(C)(=O)=O)c(C)c(C)c1O [Compound 22-1, N-(5-hydroxy-3,4,6-trimethylpyridin-2-yl)methanesulfonamide] | 97.6 ± 5 | 94.8 ± 3.8 | 95.7 ± 2.4 | 94.4 ± 0.4 | 94.4 ± 2.5 | > 100 |  |  | 87.6 ± 3.3 | 75.7 ± 8.2 | 76.1 ± 3.6 | 63.5 ± 1.8 | 43 ± 1.9 | 50.1 | 18.7 | 
9 | Cc1nc(NC(=O)Nc2cccc3ccccc23)c(C)c(C)c1O [Compound 16-5, 1-(5-hydroxy-3,4,6-trimethylpyridin-2-yl)-3-(naphthalen-1-yl)urea] | 88.1 ± 1.9 | 85.4 ± 6.4 | 90.9 ± 1.2 | 88.5 ± 2.8 | 79.6 ± 2.7 | > 100 |  |  | 105 ± 1.1 | 94.3 ± 2.1 | 78.6 ± 10.1 | 73.4 ± 5.6 | 76.7 ± 1.1 | > 100 | 20.2 | 
10 | Cc1nc(NC(=O)OCCCl)c(C)c(C)c1O [Compound 20-4, 2-Chloroethyl (5-hydroxy-3,4,6-trimethylpyridin-2-yl)carbamate] | 86.1 ± 3.1 | 82.7 ± 1 | 83.4 ± 1.3 | 83 ± 0.5 | 79.2 ± 1.3 | > 100 |  |  | 97.4 ± 2.2 | 94.7 ± 3.3 | 88.6 ± 2.2 | 90.2 ± 5.3 | 86.7 ± 3.1 | > 100 | -1.5 | 
11 | COCCOC(=O)Nc1nc(C)c(O)c(C)c1C [Compound 20-5, 2-methoxyethyl (5-hydroxy-3,4,6-trimethylpyridin-2-yl)carbamate] | 85.4 ± 4.4 | 84.2 ± 4.1 | 81.2 ± 0.7 | 79.9 ± 0.8 | 77.9 ± 0.8 | > 100 |  |  | 89.7 ± 1.2 | 83.2 ± 2.6 | 84.7 ± 1.6 | 85.5 ± 3.3 | 82.3 ± 1.1 | > 100 | -22.5 | 

From US10604487B2, “Pyridinol derivative or pharmaceutically acceptable salt thereof, and pharmaceutical composition containing same as active ingredient” (Research Cooperation Foundation of Yeungnam University, priority 2016, dated 2020)
